This note sets out measurements from PMC4303309 (Biochemistry, 2014).

SMILES strings stand for the structures.

The target of the experiment is DaCld (Dechloromonas aromatica (nom. nud.), UniProt Q47CX0). As to conditions: MCD as HOCl trap.
Chain of DaCld (Q47CX0 35-282 limits assumed): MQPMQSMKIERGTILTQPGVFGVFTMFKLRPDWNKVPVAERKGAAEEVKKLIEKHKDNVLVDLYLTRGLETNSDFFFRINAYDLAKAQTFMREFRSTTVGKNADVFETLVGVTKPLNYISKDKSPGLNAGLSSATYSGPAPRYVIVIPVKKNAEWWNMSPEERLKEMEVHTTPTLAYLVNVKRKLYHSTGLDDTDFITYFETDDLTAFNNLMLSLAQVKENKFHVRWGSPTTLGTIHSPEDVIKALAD

As for `[O-][Cl+]O` [chlorite], the “reaction with chlorite in the presence of MCD (UV-visible)” value is recorded as “no MCD-trappable HOCl could be detected for DaCld under conditions similar to those used”.
